In PMC5145181, “Structural Mapping and Functional Characterization of Zebrafish Class B G-Protein Coupled Receptor (GPCR) with Dual Ligand Selectivity towards GLP-1 and Glucagon” (PLoS ONE, 2016):
Read-outs that look alike come from different tables or passages of the source.

Assays:
[1] = test system: zfGPCR (dual zfGLP-1R/GCGR); assay: Competitive binding, displacement of 125I-hGLP-1(7–36)amide from recombinant zfGPCR expressed in COS-7 cells; parameters: species or system zebrafish (Danio rerio); conditions: 125I-hGLP-1(7–36)amide tracer, intact COS-7 cells, 16–18 h at 4°C, triplicate wells; NSB with 1 μM peptide; n = 3 hGLP-1, n = 2 zf glucagon, exendin-4, exendin(9–39), n = 1 zfGLP-1. 95% CI: zfGLP-1 1.2–3.6; hGLP-1 0.98–13; zf glucagon 1.4–4.0; exendin-4 0.24–0.92; exendin(9–39) 2.4–14
Experimental: (§1) Competitive binding experiments were performed with the recombinant zfGPCR expressed in COS-7 cells, as described previously. Transient transfections of pcDNA3 vector containing recombinant zfGPCR into COS-7 cells were performed as described below for the stimulation of intracellular cAMP. Cells were grown in 100-mm plates to confluence and 24 hr after transfection they were trypsinized and transferred to 24 well plates (Biocore, Becton Dickinson). 24–48 hr later each peptide (pM to μM) was added in triplicate wells followed by the addition of an aliquot (100,000 cpm/well) of either ^125I-hGLP-1(7–36)amide or ^125I-exendin(9–39) (each radioactive peptide tracer at […] receptor grade, NEN Life Science Products, Boston, MA). Peptides, radioiodinated ^125I-tracer and cells were incubated for 16–18 h at 4°C. After incubation cells were washed twice with ice-cold PBS, lysed with 1N NaOH and radioactivity measured in a γ-counter. A single dose-displacement curve for each peptide was obtained in a single 24-well plate.
Dose-response curves for zfGLP-1, zfGLP-2 and zebrafish PACAP-38 were obtained from one transfection. […] Lower rounds of transfections were performed in experiments that replicated our published results from the competitive binding experiments with the displacement of ^125I-hGLP-1(7–36)amide binding to zfGPCR [41] and thus represented positive controls for these studies.
(§2) IC50 values represent an average of n experiments as described above and were calculated by the Prism 4 software. Displacement curves from the competitive binding experiments were plotted by Origin 9 software (OriginLab). Error bars are shown for data points in the displacement curves obtained in two or more rounds of transfections.
(§3) Results from the functional experiments with recombinant zfGPCR transiently expressed in COS-7 cells were analyzed by the Prism 4 software using a four-parameter logistic sigmoidal curve fit model. Data points represent mean +/- SEM.
They are shown together with the 95% confidence intervals (CIs). […]

[2] = test system: hGLP-1R mutant Asn318 to alanine; parameters: method as in PMID 23479653; conditions: Asn318 mutated to alanine, cell surface expression unchanged; cited from earlier work
[3] = test system: zfGPCR (dual zfGLP-1R/GCGR); conditions: cited from earlier work
Experimental: Furthermore, exendin-4, an agonist of hGLP-1R, displaced in competitive binding experiments the binding of ^125I-hGLP-1(7–36) amide to the zebrafish receptor with an IC50 of 0.9 nM, which is within a similar concentration range as the one determined in competitive binding experiments with recombinant hGLP-1R [41] and rGLP-1R [23]. However, subsequent phylo ...

GLP-1R = conditions: cited from earlier work
Excerpt: Receptors for GLP-1 (GLP-1R) and glucagon (GCGR) belong to the class B GPCRs that mediate the physiological effects of the peptides within the glucagon-secretin peptide family. Their structures are characterized by large amino terminal extracellular domains which are about 140 amino acids long and an intracellular core consisting of a cytoplasmic domain and seven transmembrane helices (7TMs) connected through three extracellular and three intracellular loops.

[4] = test system: zfGPCR (dual zfGLP-1R/GCGR); assay: Competitive binding, displacement of 125I-exendin(9–39) from recombinant zfGPCR expressed in COS-7 cells; parameters: species or system zebrafish (Danio rerio); conditions: 125I-exendin(9–39) tracer, intact COS-7 cells, 16–18 h at 4°C, triplicate wells, NSB with 1 μM peptide, n = 4 zfGLP-1, n = 3 hGLP-1, zf glucagon, exendin-4, n = 5 exendin(9–39). 95% CI: zfGLP-1 225–371, hGLP-1 121–262, zf glucagon 78.5–144, h glucagon 33.6–134, exendin-4 0.84–1.17, exendin(9–39) 3.42–5.17
Experimental: as §1
Non-specific binding was determined in the presence of 1μM of each peptide.
as §2, §3
They are shown together with the 95% confidence intervals (CIs). The F-test was used to compare the IC50 value for zfGLP-1 with the IC50 values for the other tested peptides obtained in the competitive binding experiments shown when ^125I-hGLP-1(7–36)amide or ^125I-exendin (9–39) were used as tracers. Following conditions were used for the curve fitting: (i) in the normalization step y = 0%was set to be 0, y = 100% was set to be 100; (ii) constrained curve-fit parameters were set to be equal to 0.00 on the bottom, 100 on top; (iii) IC50 was not constrained; (iv) the selected option in the non-linear regression curve fit was intended on finding out whether the best-fit of a selected parameter (IC50) differs between two sets.

[5] = test system: hGLP-1R mutant Ser155 to alanine; conditions: Ser152 in hGCGR = Ser155 in hGLP-1R, mutated to alanine; cited from earlier work
Excerpt: Among those are TM1-TM7 interaction between Ser152^1.50 and Ser 390^7.47 in which Ser152^1.50 in TM1 in hGCGR forms a hydrogen bond with the backbone of Ser390^7.47 in TM7.

For “exendin-4: peptide exclusively found in the saliva of a lizard; agonist of GLP-1R; purchased from Bachem”, the IC50 [1] is listed as 0.48 nM, the receptor affinity [2] is listed as “reduced the receptor’s affinity” and the “IC50 (in words)” value ([3]; competitive binding, recombinant zfGPCR, similar to rGLP-1R and hGLP-1R) is listed as “in the low nM range”. For the same substance, the IC50 ([3]; displacement of 125I-hGLP-1(7–36)amide, read-out: IC50 in competitive binding (earlier characterization of the zfGPCR)) was 0.9 nM, the “stimulation of intracellular cAMP, GLP-1 vs exendin-4” value (GLP-1R) was “to a similar degree” and the IC50 [4] was 1 nM. For the same substance, the receptor affinity [5] was “small reduction of receptor affinity”.
